Test system: scopolamininduzierten Amnesie
Assay: Passive avoidance test, scopolamine-induced amnesia (light-dark box, foot shock, latency after 24 h)
Type: in vivo, Mäuse
Conditions: male mice, scopolamine hydrobromide 3 mg/kg i.p.
Procedure: Die Testapparatur ist eine Hell-Dunkel-Box mit elektrifizierbarem Gitterboden im dunklen Teil.
55 Minuten nach Verabreichung von Kontroll-und Präparatinjektion werden unerfahrene männliche Mäuse mit Scopolaminhydrobromid (3 mg/kg i.p.) behendelt. 5 Minuten später werden die Mäuse in den hellen Teil der Box gesetzt. Nach dem Überwechseln in den drunklen Teil der Box erhalten sie einen ihnen unangenehmen elektrischen Fußschock. Nach 24 Stunden wird jede Maus einmal in den hellen Teil der Testapparatur gesetzt und die Verweildauer (max. 180 sec.) gemessen. […] […] Die Ergebnisse sind in Tabelle 2 angegeben.

| Molecule | Prozentuale Abschwächung der scopolamininduzierten Amnesie (Dosis 30 mg/kg p.o., latency measured after 24 h (max. 180 sec)) [%] | prozentuale Abschwächung (Dosis 60 mg/kg p.o.) [%] |
| --- | --- | --- |
| 1-(Aminocarbony(methyl)-2,5-dimethylpyrrol-3-aldehyd [Beispiel 13] | 146 |  |
| NC(=O)CN1CCCC1=O [Piracetam] |  | 100 |

Reference: EP0287988A2, “Pyrrole aldehydes, their preparation and use” (CASSELLA Aktiengesellschaft, priority 1987, dated 1988)
